These are literature values, as cited in patent US20060136139A1, “Rapid computational identification of targets” (priority 2004, published 2006).

One series has as its system PP2B. The settings on record: experimental value beside the computed energy.
For another series, the system named is PP2C. The settings on record: experimental value beside the computed energy.
For a further series, the system named is PP1. The settings on record: experimental value beside the computed energy.
For another series, the system named is PP2A. The settings on record: experimental value beside the computed energy.
For series [1] the following is noted: at concentrations used in experimental inhibition studies.

Bounds are passed on as bounds.

Broadly, the IC50 is the concentration that gives 50% inhibition. With `C=C1[C@@H](O)[C@@H]2O[C@]3(CC[C@H](/C=C/[C@@H](C)[C@@H]4CC(C)=C[C@@]5(O[C@H](C[C@@](C)(O)C(=O)O)CC[C@H]5O)O4)O3)CC[C@H]2O[C@@H]1[C@@H](O)C[C@H](C)[C@H]1O[C@@]2(CCCCO2)CC[C@H]1C` [okadaic acid], the IC50 is 5 µM in the series on PP2B, more than 10 µM with PP2C, 42 nM with PP1 and 0.51 nM in the series with PP2A.
As to `O=c1c(O)c(-c2ccc(O)c(O)c2)oc2cc(O)cc(O)c12` [quercetin], the “aggregation of kinase inhibitor” value in series [1] is given as “exhibit this behavior”.
